Legend:
α4β7 integrin = α4β7 integrin (Homo sapiens (Human), UniProt P13612+P26010); assay: Integrin Adhesion Assay: Protocol 1 (MAdCAM-coated plate, RPMI-8866 cells, CellTiter GLO readout); type: cell-based
Protocol: α4β7 and α4β1 inhibition was evaluated in vitro using at least one of the following procedures:
Integrin Adhesion Assay: Protocol 1
MAdCAM (R&D Systems, 0.1 ug) was diluted in 50 μL PBS, added to each well of an opaque ELISA plate (Thermo), and incubated overnight at 4° C. Coated plates were washed once with PBS and then blocked with 200 μL of assay buffer (10 mM HEPES, 150 mM NaCl, 1 mM MnCl2, 0.1 mM CaCl2), 1% BSA) for 1 hour at 37° C. and 5% CO2. After incubation, buffer was aspirated from the plates and 50 μL of fresh assay buffer is added. Compounds were added by a compouns dispenser (Tecan) and DMSO concentration was normalized to 1% across each plate. 50 μL of RPMI-8866 cells (2×10^6 per mL) were added to each well and the plates were incubated for 1 hour at 37° C. and 5% CO2. After incubation, plates were allowed to cool to RT for 10 minutes before being washed four times in assay buffer by an automated plate washer (BioTek). After washing, 100 μL of a 1:1 mixture of assay buffer and CellTiter GLO 2.0 reagent (Promega) were added to each well. Plates were mixed for 2 minutes at 1000 rpm and then allowed to incubate an additional 10 minutes before reading out luminescence on a Tecan Spark plate reader. Raw data was converted to percent inhibition based on DMSO only and control compound wells, and curves were analyzed by 4-parameter fit within Dotmatics software.

α4β1 integrin = α4β1 integrin (Homo sapiens (Human), UniProt P05556+P13612); assay: Integrin Adhesion Assay: Protocol 5 (VCAM-coated plate, RPMI-8866 cells with stable LOF mutation of the ITGB7 gene); type: cell-based; details: RPMI-8866 cells with stable LOF mutation of the ITGB7 gene; read-out: Mean IC50 α4β1 KO^b
In short: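 RPMI-8866 B cells with CRISPR/Cas9 ITGB7 knockout (clonal, verified by flow cytometry) adhered to VCAM-coated wells for 1 h at 37° C in HEPES/NaCl buffer with 1 mM MnCl2, 0.1 mM CaCl2, 1% BSA, 1% DMSO. Bound cells quantified by CellTiter-Glo luminescence after washing; % inhibition versus DMSO and control, 4-parameter fit.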

Chain of α4β7 integrin (P13612 34-1032): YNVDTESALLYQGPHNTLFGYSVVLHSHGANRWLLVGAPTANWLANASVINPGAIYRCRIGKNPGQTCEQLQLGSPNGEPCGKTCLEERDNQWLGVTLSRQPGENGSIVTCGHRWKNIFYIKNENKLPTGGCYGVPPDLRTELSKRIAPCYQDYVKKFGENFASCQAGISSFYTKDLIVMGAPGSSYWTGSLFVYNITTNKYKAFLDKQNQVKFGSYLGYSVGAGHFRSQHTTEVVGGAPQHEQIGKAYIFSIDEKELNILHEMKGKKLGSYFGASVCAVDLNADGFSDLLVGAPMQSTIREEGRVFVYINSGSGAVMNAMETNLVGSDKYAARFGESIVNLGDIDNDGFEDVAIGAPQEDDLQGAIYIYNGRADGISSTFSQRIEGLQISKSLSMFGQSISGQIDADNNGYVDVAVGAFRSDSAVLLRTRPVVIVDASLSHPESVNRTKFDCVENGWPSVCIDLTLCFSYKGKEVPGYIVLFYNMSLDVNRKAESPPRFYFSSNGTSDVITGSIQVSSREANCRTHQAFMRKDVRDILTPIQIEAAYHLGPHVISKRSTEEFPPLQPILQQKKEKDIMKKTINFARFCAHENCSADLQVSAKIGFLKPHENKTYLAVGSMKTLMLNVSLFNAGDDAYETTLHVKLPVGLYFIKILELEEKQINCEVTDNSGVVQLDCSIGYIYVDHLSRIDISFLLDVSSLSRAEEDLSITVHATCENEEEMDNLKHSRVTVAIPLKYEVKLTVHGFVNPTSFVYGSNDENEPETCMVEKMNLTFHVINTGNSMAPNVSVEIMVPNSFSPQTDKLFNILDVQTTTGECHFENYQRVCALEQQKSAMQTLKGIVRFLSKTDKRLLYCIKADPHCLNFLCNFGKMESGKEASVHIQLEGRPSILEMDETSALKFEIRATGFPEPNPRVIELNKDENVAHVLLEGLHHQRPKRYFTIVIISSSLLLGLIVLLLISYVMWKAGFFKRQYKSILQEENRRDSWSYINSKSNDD
Chain of α4β7 integrin (P26010 20-798): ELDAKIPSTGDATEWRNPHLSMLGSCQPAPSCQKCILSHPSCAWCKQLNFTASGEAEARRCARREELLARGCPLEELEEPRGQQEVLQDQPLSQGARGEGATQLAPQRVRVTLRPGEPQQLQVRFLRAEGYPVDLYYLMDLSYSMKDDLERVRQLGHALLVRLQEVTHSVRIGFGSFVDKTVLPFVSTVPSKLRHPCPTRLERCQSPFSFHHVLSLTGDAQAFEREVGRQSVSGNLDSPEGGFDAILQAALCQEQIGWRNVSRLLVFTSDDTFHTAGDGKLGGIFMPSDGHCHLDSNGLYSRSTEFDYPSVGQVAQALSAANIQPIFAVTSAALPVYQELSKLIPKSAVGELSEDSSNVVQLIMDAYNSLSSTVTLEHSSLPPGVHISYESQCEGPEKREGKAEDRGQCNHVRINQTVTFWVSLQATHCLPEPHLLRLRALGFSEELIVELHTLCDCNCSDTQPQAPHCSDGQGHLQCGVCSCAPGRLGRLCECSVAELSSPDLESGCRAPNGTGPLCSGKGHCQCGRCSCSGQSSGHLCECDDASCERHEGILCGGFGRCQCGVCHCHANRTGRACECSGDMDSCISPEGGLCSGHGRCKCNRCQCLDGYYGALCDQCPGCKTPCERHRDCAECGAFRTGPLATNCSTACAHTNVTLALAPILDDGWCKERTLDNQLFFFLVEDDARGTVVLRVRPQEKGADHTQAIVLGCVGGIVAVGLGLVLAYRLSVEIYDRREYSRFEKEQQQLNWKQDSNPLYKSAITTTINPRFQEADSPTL
Chain of α4β1 integrin (P13612 34-1032): as the sequence (P13612 34-1032) above
Chain of α4β1 integrin (P05556 21-798): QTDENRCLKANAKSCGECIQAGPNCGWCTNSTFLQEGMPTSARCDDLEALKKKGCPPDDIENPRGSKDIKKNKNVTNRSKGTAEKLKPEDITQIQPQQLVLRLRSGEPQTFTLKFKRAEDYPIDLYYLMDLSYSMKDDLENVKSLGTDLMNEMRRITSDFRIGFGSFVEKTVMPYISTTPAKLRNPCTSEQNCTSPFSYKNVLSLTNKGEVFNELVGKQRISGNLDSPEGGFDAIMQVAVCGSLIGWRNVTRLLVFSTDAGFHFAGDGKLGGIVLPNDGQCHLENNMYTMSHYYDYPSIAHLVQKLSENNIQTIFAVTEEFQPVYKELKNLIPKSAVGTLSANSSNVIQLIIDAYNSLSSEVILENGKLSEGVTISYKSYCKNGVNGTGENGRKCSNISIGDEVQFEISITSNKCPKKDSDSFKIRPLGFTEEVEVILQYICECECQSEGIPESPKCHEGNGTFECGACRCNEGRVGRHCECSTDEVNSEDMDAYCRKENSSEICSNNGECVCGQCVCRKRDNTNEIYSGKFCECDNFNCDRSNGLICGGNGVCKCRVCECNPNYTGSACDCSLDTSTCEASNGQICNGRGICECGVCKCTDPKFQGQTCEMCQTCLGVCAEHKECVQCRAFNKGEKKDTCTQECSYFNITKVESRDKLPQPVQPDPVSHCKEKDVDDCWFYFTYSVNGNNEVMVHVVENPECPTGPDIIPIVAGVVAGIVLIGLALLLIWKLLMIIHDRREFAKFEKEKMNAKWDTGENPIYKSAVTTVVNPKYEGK

Row | IC50 (α4β7 integrin) [nM] | IC50 (α4β1 integrin) [nM] | Compound
1 | 10 to 100 | > 1000 | CN1CCN(Cc2cccc(F)c2C(=O)N[C@@H](Cc2cccc3c(-c4c(C(F)(F)F)c5ccccc5n(C)c4=O)cccc23)C(=O)O)CC1 [Compound 353]
2 | 10 to 100 | > 1000 | O=C(N[C@@H](Cc1cccc2c(-c3cccc4ccncc34)cccc12)C(=O)O)c1c(F)cccc1CN1CCCC1 [Compound 356]
3 | 10 to 100 | > 1000 | CN(C)Cc1cccc(F)c1C(=O)N[C@@H](Cc1cccc2c(-c3cccc4ccncc34)cccc12)C(=O)O [Compound 357]
4 | 10 to 100 | > 1000 | O=C(N[C@@H](Cc1cccc2c(-c3cccc4ccncc34)cccc12)C(=O)O)c1c(F)cccc1CN1CCC(F)(F)CC1 [Compound 358]
5 | < 10 | > 1000 | Cn1c(=O)c(-c2cccc3c(C[C@H](NC(=O)c4c(F)cc(N5CCOC[C@@H]5C(F)(F)F)cc4CN4CCCC4)C(=O)O)cccc23)c(C(F)(F)F)c2ccccc21 [Compound 359]
6 | < 10 | > 1000 | CN1CCN(Cc2cc(N3CCOC[C@@H]3C(F)(F)F)cc(F)c2C(=O)N[C@@H](Cc2cccc3c(-c4c(C(F)(F)F)c5ccccc5n(C)c4=O)cccc23)C(=O)O)CC1 [Compound 360]
7 | 10 to 100 | > 1000 | Cc1cc(N2CCOC[C@@H]2C(F)(F)F)cc(F)c1C(=O)N[C@@H](Cc1cccc2c(-c3c(C(F)(F)F)c4ccccc4n(C)c3=O)cccc12)C(=O)O [Compound 361]
8 | 10 to 100 | > 1000 | Cn1c(=O)c(-c2cccc3c(C[C@H](NC(=O)C4(C)CCN(C5CCOCC5)CC4)C(=O)O)cccc23)c(C(F)(F)F)c2ccccc21 [Compound 362]
9 | 10 to 100 | > 1000 | Cn1c(=O)c(-c2cccc3c(C[C@H](NC(=O)C4(C)CCN(C5COC5)CC4)C(=O)O)cccc23)c(C(F)(F)F)c2ccccc21 [Compound 363]
10 | 100 to 1000 | > 1000 | CN(c1cc(F)c(C(=O)N[C@@H](Cc2cccc3c(-c4c(C(F)(F)F)c5ccccc5n(C)c4=O)cccc23)C(=O)O)c(F)c1)C1COC1 [Compound 364]
11 | 100 to 1000 | > 1000 | CO[C@H](C)c1cc(F)c(C(=O)N[C@@H](Cc2cccc3c(-c4c(C(F)(F)F)c5ccccc5n(C)c4=O)cccc23)C(=O)O)c(F)c1 [Compound 375]
12 | 10 to 100 | > 1000 | Cn1c(=O)c(-c2cccc3c(C[C@H](NC(=O)c4c(F)cc(NC5COC5)cc4F)C(=O)O)cccc23)c(C(F)(F)F)c2ccccc21 [Compound 378]
13 | 10 to 100 | > 1000 | Cn1c(=O)c(-c2cccc3c(C[C@H](NC(=O)c4c(F)cc(N(CC(F)(F)F)C5COC5)cc4F)C(=O)O)cccc23)c(C(F)(F)F)c2ccccc21 [Compound 380]
14 | 100 to 1000 | > 1000 | Cn1c(=O)c(-c2cccc3c(C[C@H](NC(=O)c4c(F)cc(C5CCC(F)(F)CC5)cc4F)C(=O)O)cccc23)c(C(F)(F)F)c2ccccc21 [Compound 381]
15 | 100 to 1000 | > 1000 | COCCN(C)c1cc(F)c(C(=O)N[C@@H](Cc2cccc3c(-c4c(C(F)(F)F)c5ccccc5n(C)c4=O)cccc23)C(=O)O)c(F)c1 [Compound 384]
16 | 10 to 100 | > 1000 | COCCN(CC(F)(F)F)c1cc(F)c(C(=O)N[C@@H](Cc2cccc3c(-c4c(C(F)(F)F)c5ccccc5n(C)c4=O)cccc23)C(=O)O)c(F)c1 [Compound 385]
17 | 10 to 100 | > 1000 | Cn1c(=O)c(-c2cccc3c(C[C@H](NC(=O)c4c(F)cc(N(CCC(F)(F)F)C5COC5)cc4F)C(=O)O)cccc23)c(C(F)(F)F)c2ccccc21 [Compound 392]
18 | 10 to 100 | > 1000 | COCCN(c1cc(F)c(C(=O)N[C@@H](Cc2cccc3c(-c4c(C(F)(F)F)c5ccccc5n(C)c4=O)cccc23)C(=O)O)c(F)c1)C1COC1 [Compound 393]
19 | 100 to 1000 | > 1000 | Cn1c(=O)c(-c2cccc3c(C[C@H](NC(=O)c4c(F)cc(N(C5COC5)C5COC5)cc4F)C(=O)O)cccc23)c(C(F)(F)F)c2ccccc21 [Compound 397]

Reference: patent US20250313535A1, “ALPHA 4 BETA 7 INTEGRIN MODULATORS AND USES THEREOF” (DICE MOLECULES SV, INC., priority 2022, published 2025)
